Values of other authors in patent publication US9725402B2, “Nitroso compounds as nitroxyl donors and methods of use thereof” (priority 2008, dated 2017).

Assays:
pheochromocytoma = details: subcutaneous xenograft, dose nontoxic to nude mice
[1] = test system: cultured breast cancer cells
breast cancer cells = details: mouse xenograft model
[2] = test system: myocardial ischemia/reperfusion injury; details: administered during ischemia and 5 minutes prior to reperfusion, anesthetized rabbits

## O=S(=O)(NO)c1ccccc1 [PA, N-hydroxybenzenesulfonamide]
Nitroxyl donor only at high pH
  pH at which compound is a nitroxyl donor: > 9
Physiological conditions, oxidative pathway
  species donated under physiological conditions: nitric oxide donor

## [Na+].[Na+].[O-][N+]([O-])=NO [Angeli's salt, sodium α-oxyhyponitrite]
Cancer cells; pH 7.4
  toxicity to cancer cells: no toxicity
Cancer cells; weakly acidic solutions
  cytotoxicity to cancer cells: strong cytotoxicity
pheochromocytoma
  tumor growth: inhibit tumor growth
[1]
  proliferation of cultured breast cancer cells: inhibits the proliferation
Breast cancer cells
  tumor mass: decreases tumor mass
[2]
  myocardial ischemia/reperfusion injury: increased myocardial ischemia/reperfusion injury
